ChEMBL document CHEMBL1124835, “Structure-activity relationships of antineoplastic agents in multidrug resistance” (J Med Chem, 1990)

Legend:
physchem = details: octanol/water, pH 7.4
L1210 [1] = tested on: L1210
Description: (§1) Cross resistance profile versus L1210/R71 cells.

CHO [2] = tested on: CHO
Description: (§2) Effect on cross resistance of CHO cells resistant to colchicine (CHRC5)

CHRC5 cell line = type: functional, Cricetulus griseus
Description: Effect on collateral sensitivity of CHRC5 cells to local anesthetics/steroids.

L1210 [3] = assay: Cross resistance to the compound expressed as log of ratio of molar concentration of drug inducing 50% inhibition of growth in murine leukemia L1210/R71 and L1210/0 cells; type: functional, Mus musculus
CHO [4] = assay: Cross resistance of chinese hamster cells resistant to actinomycin D as log of ratio of molar concentration of compound inducing 50% inhibition of growth in resistant and sensitive cells; type: functional, Cricetulus griseus
CHO [5] = assay: Effect on cross resistance of chinese hamster ovary CHO cells resistant to colchicine (CHRC5); type: functional, Cricetulus griseus
[6] = octanol/water, pH 7.4
CCRF-CEM = assay: Effect on cross resistance of CCRF-CEM cells resistant to vincristine.; type: functional, Homo sapiens
L1210 [7] = assay: Cross resistance to the compound expressed as as log of ratio of molar concentration of drug inducing 50% inhibition of growth in murine leukemia L1210/R71 and L1210/0 cells; type: functional, Mus musculus
L1210 [8] = details: Mus musculus
Description: as §1

CHO [9] = details: Cricetulus griseus
Description: as §2

| Compound | logD (physchem) | Log CR (L1210 [1]) | other results |
| --- | --- | --- | --- |
| Nc1n[nH]c(N)n1 [GUANAZOLE] | -1.61 | 0.08 | – |
| N[C@@H](Cc1ccc(N(CCCl)CCCl)cc1)C(=O)O | -0.52 | – | Log CR (CHO [2]): 1.18 |
| C[C@]12CC[C@H]3[C@@H](CCC4=CC(=O)CC[C@@]43C)[C@@H]1CC[C@@H]2C(=O)CO [DESOXYCORTICOSTERONE] | 3.08 | – | Log sensitivity (CHRC5 cell line): 1 |
| COc1cc(NCc2ccc3nc(N)nc(N)c3c2C)cc(OC)c1OC [TRIMETREXATE] | 0.84 | – | Log CR (L1210 [3]): 1.75 |
| CC[n+]1c(-c2ccccc2)c2cc(N)ccc2c2ccc(N)cc21.[Br-] [HOMIDIUM BROMIDE] | 1.15 | – | Log CR (CHO [2]): 1.04 |
| CC[C@H]1OC(=O)[C@H](C)[C@@H](O[C@H]2C[C@@](C)(OC)[C@@H](O)[C@H](C)O2)[C@H](C)[C@@H](O[C@@H]2O[C@H](C)C[C@H](N(C)C)[C@H]2O)[C@](C)(O)C[C@@H](C)C(=O)[C@H](C)[C@@H](O)[C@]1(C)O [ERYTHROMYCIN] | 1.26 | – | Log CR (CHO [2]): 0.7 |
| Nc1ccc2cc3ccc(N)cc3nc2c1 [PROFLAVINE] | 1.1 | – | Log CR (CHO [4]): 0.46; Log CR (CHO [5]): 0.6 |
| CC1(C)N=C(N)N=C(N)N1c1cccc(C(N)=O)c1 | – | 1.85 | logD [6]: -4.49 |
| CC1(C)N=C(N)N=C(N)N1c1cccc(COc2cccc(-c3ccccc3)c2)c1 | 0.69 | 1.22 | – |
| CC/C(=C(\c1ccccc1)c1ccc(OCCN(C)C)cc1)c1ccccc1 [TAMOXIFEN] | – | 0.59 | – |
| CO[C@H](C(=O)[C@@H](O)[C@@H](C)O)[C@@H]1Cc2cc3cc(O[C@H]4C[C@@H](O[C@@H]5C[C@@H](O)[C@H](O)[C@@H](C)O5)[C@H](O)[C@@H](C)O4)c(C)c(O)c3c(O)c2C(=O)[C@H]1O[C@H]1C[C@@H](O[C@@H]2C[C@@H](O)[C@@H](O[C@@H]3C[C@](C)(O)[C@H](O)[C@@H](C)O3)[C@@H](C)O2)[C@H](O)[C@@H](C)O1 [PLICAMYCIN] | – | 0.66 | – |
| CN[C@H]1CCc2cc(OC)c(OC)c(OC)c2-c2ccc(OC)c(=O)cc21 [DEMECOLCINE] | 1.37 | – | Log CR (CHO [2]): 1.2 |
| S=P(N1CC1)(N1CC1)N1CC1 [THIOTEPA] | 0.53 | – | Log CR (CHO [2]): 0 |
| CC[C@]1(O)C[C@H]2CN(CCc3c([nH]c4ccccc34)[C@@](C(=O)OC)(c3cc4c(cc3OC)N(C=O)[C@H]3[C@@](O)(C(=O)OC)[C@H](OC(C)=O)[C@]5(CC)C=CCN6CC[C@]43[C@@H]65)C2)C1 [VINCRISTINE] | 2.57 | – | Log CR (CCRF-CEM): 2.76 |
| CN(Cc1cnc2nc(N)nc(N)c2n1)c1ccc(C(=O)N[C@@H](CCC(=O)O)C(=O)O)cc1 [METHOTREXATE] | -2.52 | – | Log CR (L1210 [7]): 2.55; Log CR (CHO [4]): 0.04 |
| BLEOMYCIN | – | – | Log CR (L1210 [8]): 0.24; Log CR (CHO [9]): 0 |
| COc1cc2c(c(OC)c1OC)-c1ccc(OC)c(=O)cc1[C@@H](NC(C)=O)CC2 [COLCHICINE] | 1.03 | – | Log CR (CHO [2]): 2.26; Log CR (CCRF-CEM): 1.08 |
| COc1cccc2c1C(=O)c1c(O)c3c(c(O)c1C2=O)C[C@@](O)(C(C)=O)C[C@@H]3O[C@H]1C[C@H](N)[C@H](O)[C@H](C)O1 [DAUNORUBICIN] | – | – | Log CR (CCRF-CEM): 1.2 |
| CC[C@]1(O)C[C@@H]2CN(CCc3c([nH]c4ccccc34)[C@@](C(=O)OC)(c3cc4c(cc3OC)N(C)[C@H]3[C@@](O)(C(N)=O)[C@H](O)[C@]5(CC)C=CCN6CC[C@]43[C@@H]65)C2)C1 [VINDESINE] | 0.67 | – | Log CR (CCRF-CEM): 3 |
| CC[C@]1(O)C[C@@H]2CN(CCc3c([nH]c4ccccc34)[C@@](C(=O)OC)(c3cc4c(cc3OC)N(C)[C@H]3[C@@](O)(C(=O)OC)[C@H](OC(C)=O)[C@]5(CC)C=CCN6CC[C@]43[C@@H]65)C2)C1 [VINBLASTINE] | – | – | Log CR (CCRF-CEM): 1.28 |
| CC1(C)N=C(N)N=C(N)N1c1cccc(Br)c1 | -2.14 | 2.06 | – |
| CCCCCCCCCCCCc1cccc(N2C(N)=NC(N)=NC2(C)C)c1 | 3.41 | 0.52 | – |
| O=[N+]([O-])c1cccc2ccc[n+]([O-])c12 | 1.02 | – | – |
| COc1ccc(C[C@H](N)C(=O)N[C@H]2[C@@H](O)[C@H](n3cnc4c(N(C)C)ncnc43)O[C@@H]2CO)cc1 [PUROMYCIN] | 0.86 | 1.82 | Log CR (CHO [2]): 2.02 |
| NC(=O)NO [HYDROXYUREA] | -1.27 | 0.3 | – |
| Cc1nc(N)nc(N)c1-c1ccc(Cl)c(Cl)c1 [METOPRINE] | 2.56 | – | Log CR (L1210 [3]): 1.7 |
